system: Chinese sprangletop; experiment: Test Example 3: herbicidal effect by foliage application, Wagner pot (Table 18, symbol D); type: in vivo, chinese sprangletop (Leptochloa chinensis); conditions: 320 g/ha
How it was run: (§1)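 Plants were sown in alluvial soil held under 0.1–0.5 cm standing water and grown 14 days in a greenhouse at 25–30 °C. An emulsifiable formulation, water-diluted to the set dose, was then sprayed onto the foliage, and effects were scored three weeks later using previously defined criteria.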

Structure (SMILES)	herbicidal effect on Chinese sprangletop (D)
CCCC(=O)Oc1c(C)nn(C)c(=O)c1-c1c(-c2ccc(C)cc2)sc2c(Cl)cccc12 [4-020]	5 (Herbicidal rate of 90% or more (almost completely withered))

system: southern crabgrass; experiment: Test Example 5: herbicidal effect by foliage application, plastic box (Table 20, symbol F); type: in vivo, southern crabgrass (Digitaria ciliaris); conditions: 320 g/ha, foliage application after 14-day growth, evaluated three weeks after application
How it was run: (§2)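 Plants were sown into sterilized diluvial soil under about 1.5 cm cover and kept in a greenhouse at 25° C. to 30° C. Fourteen days on, foliage received an even spray of the diluted emulsion. Herbicidal or crop effect was judged three weeks afterwards.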

Structure (SMILES)	herbicidal effect on F: southern crabgrass (evaluation grade 0-5)
CCCC(=O)Oc1c(C)nn(C)c(=O)c1-c1c(-c2ccc(C)cc2)sc2c(Cl)cccc12 [4-020]	0 (Herbicidal rate of 5% or less (almost no effect))

system: rice flat sedge; experiment: Test Example 3: herbicidal effect by foliage application, Wagner pot (Table 18, symbol E); type: in vivo, rice flat sedge (Cyperus iria); conditions: 320 g/ha
How it was run: as §1

Structure (SMILES)	herbicidal effect on rice flat sedge (E)
CCCC(=O)Oc1c(C)nn(C)c(=O)c1-c1c(-c2ccc(C)cc2)sc2c(Cl)cccc12 [4-020]	5 (Herbicidal rate of 90% or more (almost completely withered))

system: Japanese bulrush; experiment: Test Example 2: herbicidal activity, application during weed generation under submerged conditions (Table 17, symbol B); type: in vivo, Japanese bulrush (Schoenoplectus juncoides); conditions: AAH 320 g/ha; application during weed generation, submerged conditions
How it was run: (§3)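 Effect on each weed is rated three weeks post-treatment, using the same scoring criteria as the preceding test. Plants grow from mixed-sown seed in flooded alluvial soil (4 cm water) at 25° C. to 30° C., and are treated at one to two leaves with diluted emulsion dropped onto the water.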

Structure (SMILES)	herbicidal effect rating, B: Japanese bulrush
CCCC(=O)Oc1c(C)nn(C)c(=O)c1-c1c(-c2ccc(C)cc2)sc2c(Cl)cccc12 [4-020]	3 (Herbicidal rate of 40% or more and less than 70%)

system: lambsquarters; experiment: Test Example 5: herbicidal effect by foliage application, plastic box (Table 20, symbol O); type: in vivo, lambsquarters (Chenopodium album); conditions: 320 g/ha, foliage application after 14-day growth, evaluated three weeks after application
How it was run: as §2

Structure (SMILES)	herbicidal effect on O: lambsquarters (evaluation grade 0-5)
CCCC(=O)Oc1c(C)nn(C)c(=O)c1-c1c(-c2ccc(C)cc2)sc2c(Cl)cccc12 [4-020]	2 (Herbicidal rate of 20% or more and less than 40%)

system: barnyard grass; experiment: Test Example 3: herbicidal effect by foliage application, Wagner pot (Table 18, symbol H); type: in vivo, barnyard grass (Echinochloa crus-galli); conditions: 320 g/ha
How it was run: as §1

Structure (SMILES)	herbicidal effect on barnyard grass (H)
CCCC(=O)Oc1c(C)nn(C)c(=O)c1-c1c(-c2ccc(C)cc2)sc2c(Cl)cccc12 [4-020]	4 (Herbicidal rate of 70% or more and less than 90%)

system: oval-leafed pondweed; experiment: Test Example 2: herbicidal activity, application during weed generation under submerged conditions (Table 17, symbol C); type: in vivo, oval-leafed pondweed (Monochoria vaginalis); conditions: AAH 320 g/ha; application during weed generation, submerged conditions
How it was run: as §3

Structure (SMILES)	herbicidal effect rating, C: oval-leafed pondweed
CCCC(=O)Oc1c(C)nn(C)c(=O)c1-c1c(-c2ccc(C)cc2)sc2c(Cl)cccc12 [4-020]	0 (Herbicidal rate of 5% or less (almost no effect))

system: barnyard grass; experiment: Test Example 5: herbicidal effect by foliage application, plastic box (Table 20, symbol H); type: in vivo, barnyard grass (Echinochloa crus-galli); conditions: 320 g/ha, foliage application after 14-day growth, evaluated three weeks after application
How it was run: as §2

Structure (SMILES)	herbicidal effect on H: barnyard grass (evaluation grade 0-5)
CCCC(=O)Oc1c(C)nn(C)c(=O)c1-c1c(-c2ccc(C)cc2)sc2c(Cl)cccc12 [4-020]	0 (Herbicidal rate of 5% or less (almost no effect))

system: blackgrass; experiment: Test Example 5: herbicidal effect by foliage application, plastic box (Table 20, symbol J); type: in vivo, blackgrass (Alopecurus myosuroides); conditions: 320 g/ha, foliage application after 14-day growth, evaluated three weeks after application
How it was run: as §2

Structure (SMILES)	herbicidal effect on J: blackgrass (evaluation grade 0-5)
CCCC(=O)Oc1c(C)nn(C)c(=O)c1-c1c(-c2ccc(C)cc2)sc2c(Cl)cccc12 [4-020]	0 (Herbicidal rate of 5% or less (almost no effect))

system: Italian ryegrass; experiment: Test Example 5: herbicidal effect by foliage application, plastic box (Table 20, symbol K); type: in vivo, Italian ryegrass (Lolium multiflorum); conditions: 320 g/ha, foliage application after 14-day growth, evaluated three weeks after application
How it was run: as §2

Structure (SMILES)	herbicidal effect on K: Italian ryegrass (evaluation grade 0-5)
CCCC(=O)Oc1c(C)nn(C)c(=O)c1-c1c(-c2ccc(C)cc2)sc2c(Cl)cccc12 [4-020]	4 (Herbicidal rate of 70% or more and less than 90%)

system: Japanese bulrush; experiment: Test Example 1: herbicidal activity, application before weed generation under submerged conditions (Table 16, symbol B); type: in vivo, Japanese bulrush (Schoenoplectus juncoides); conditions: amount of applied herbicide 320 g/ha
How it was run: (§4)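 Submerged Wagner pots (alluvial soil, 4 cm water) sown with weed seeds and planted with 2.5-leaf rice seedlings; emulsifiable concentrate diluted in water applied to water surface on sowing day. Held in greenhouse at 25-30 °C; injury scored 0-5 by herbicidal rate after three weeks.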

Structure (SMILES)	Herbicidal effect, B: Japanese bulrush
CCCC(=O)Oc1c(C)nn(C)c(=O)c1-c1c(-c2ccc(C)cc2)sc2c(Cl)cccc12 [4-020]	3 (Herbicidal rate of 40% or more and less than 70%)

system: chickweed; experiment: Test Example 5: herbicidal effect by foliage application, plastic box (Table 20, symbol P); type: in vivo, common chickweed (Stellaria media); conditions: 320 g/ha, foliage application after 14-day growth, evaluated three weeks after application
How it was run: as §2

Structure (SMILES)	herbicidal effect on P: chickweed (evaluation grade 0-5)
CCCC(=O)Oc1c(C)nn(C)c(=O)c1-c1c(-c2ccc(C)cc2)sc2c(Cl)cccc12 [4-020]	5 (Herbicidal rate of 90% or more (almost completely withered))

system: late watergrass; experiment: Test Example 1: herbicidal activity, application before weed generation under submerged conditions (Table 16, symbol A); type: in vivo, late watergrass (Echinochloa oryzicola); conditions: amount of applied herbicide 320 g/ha
How it was run: as §4

Structure (SMILES)	Herbicidal effect, A: late watergrass
CCCC(=O)Oc1c(C)nn(C)c(=O)c1-c1c(-c2ccc(C)cc2)sc2c(Cl)cccc12 [4-020]	4 (Herbicidal rate of 70% or more and less than 90%)

system: velvetleaf; experiment: Test Example 5: herbicidal effect by foliage application, plastic box (Table 20, symbol M); type: in vivo, velvetleaf (Abutilon theophrasti); conditions: 320 g/ha, foliage application after 14-day growth, evaluated three weeks after application
How it was run: as §2

Structure (SMILES)	herbicidal effect on M: velvetleaf (evaluation grade 0-5)
CCCC(=O)Oc1c(C)nn(C)c(=O)c1-c1c(-c2ccc(C)cc2)sc2c(Cl)cccc12 [4-020]	5 (Herbicidal rate of 90% or more (almost completely withered))

system: windgrass; experiment: Test Example 5: herbicidal effect by foliage application, plastic box (Table 20, symbol L); type: in vivo, windgrass (Apera spica-venti); conditions: 320 g/ha, foliage application after 14-day growth, evaluated three weeks after application
How it was run: as §2

Structure (SMILES)	herbicidal effect on L: windgrass (evaluation grade 0-5)
CCCC(=O)Oc1c(C)nn(C)c(=O)c1-c1c(-c2ccc(C)cc2)sc2c(Cl)cccc12 [4-020]	5 (Herbicidal rate of 90% or more (almost completely withered))

system: wild oat; experiment: Test Example 5: herbicidal effect by foliage application, plastic box (Table 20, symbol I); type: in vivo, wild oat (Avena fatua); conditions: 320 g/ha, foliage application after 14-day growth, evaluated three weeks after application
How it was run: as §2

Structure (SMILES)	herbicidal effect on I: wild oat (evaluation grade 0-5)
CCCC(=O)Oc1c(C)nn(C)c(=O)c1-c1c(-c2ccc(C)cc2)sc2c(Cl)cccc12 [4-020]	3 (Herbicidal rate of 40% or more and less than 70%)

system: persian speedwell; experiment: Test Example 5: herbicidal effect by foliage application, plastic box (Table 20, symbol R); type: in vivo, Persian speedwell (Veronica persica); conditions: 320 g/ha, foliage application after 14-day growth, evaluated three weeks after application
How it was run: as §2

Structure (SMILES)	herbicidal effect on R: persian speedwell (evaluation grade 0-5)
CCCC(=O)Oc1c(C)nn(C)c(=O)c1-c1c(-c2ccc(C)cc2)sc2c(Cl)cccc12 [4-020]	5 (Herbicidal rate of 90% or more (almost completely withered))

system: late watergrass; experiment: Test Example 2: herbicidal activity, application during weed generation under submerged conditions (Table 17, symbol A); type: in vivo, late watergrass (Echinochloa oryzicola); conditions: AAH 320 g/ha; application during weed generation, submerged conditions
How it was run: as §3

Structure (SMILES)	herbicidal effect rating, A: late watergrass
CCCC(=O)Oc1c(C)nn(C)c(=O)c1-c1c(-c2ccc(C)cc2)sc2c(Cl)cccc12 [4-020]	0 (Herbicidal rate of 5% or less (almost no effect))

system: green foxtail; experiment: Test Example 5: herbicidal effect by foliage application, plastic box (Table 20, symbol G); type: in vivo, green foxtail (Setaria viridis); conditions: 320 g/ha, foliage application after 14-day growth, evaluated three weeks after application
How it was run: as §2

Structure (SMILES)	herbicidal effect on G: green foxtail (evaluation grade 0-5)
CCCC(=O)Oc1c(C)nn(C)c(=O)c1-c1c(-c2ccc(C)cc2)sc2c(Cl)cccc12 [4-020]	0 (Herbicidal rate of 5% or less (almost no effect))

system: redroot pigweed; experiment: Test Example 5: herbicidal effect by foliage application, plastic box (Table 20, symbol N); type: in vivo, redroot pigweed (Amaranthus retroflexus); conditions: 320 g/ha, foliage application after 14-day growth, evaluated three weeks after application
How it was run: as §2

Structure (SMILES)	herbicidal effect on N: redroot pigweed (evaluation grade 0-5)
CCCC(=O)Oc1c(C)nn(C)c(=O)c1-c1c(-c2ccc(C)cc2)sc2c(Cl)cccc12 [4-020]	5 (Herbicidal rate of 90% or more (almost completely withered))

system: oval-leafed pondweed; experiment: Test Example 1: herbicidal activity, application before weed generation under submerged conditions (Table 16, symbol C); type: in vivo, oval-leafed pondweed (Monochoria vaginalis); conditions: amount of applied herbicide 320 g/ha
How it was run: as §4

Structure (SMILES)	Herbicidal effect, C: oval-leafed pondweed
CCCC(=O)Oc1c(C)nn(C)c(=O)c1-c1c(-c2ccc(C)cc2)sc2c(Cl)cccc12 [4-020]	0 (Herbicidal rate of 5% or less (almost no effect))

Reference: US20230085307A1, “PYRIDAZINONE COMPOUND AND HERBICIDE” (NISSAN CHEMICAL CORPORATION, priority 2019, published 2023)
